We go through eight compounds from ChEMBL document CHEMBL1201862, “PubChem BioAssay data set” (2004).

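Grown in 96-well plates, cells were treated for 48 hours with each compound at five concentrations. Insufficient inhibition: endpoint recorded as highest concentration tested. Abbreviation: GI50, concentration required for 50% inhibition of growth.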 The source made the active and inactive calls. Cut-off read from the data, not from the text of the source: active = GI50 up to about 1.1 µM and inactive = higher.

Test systems include MDA-MB-231; 786-0; Malme-3M; NCI-H460; SF-295; SK-MEL-5; PC-3; NCI/ADR-RES; HOP-92; SK-MEL-28; HOP-62; IGROV-1; OVCAR-3; HCT-116; CCRF-CEM; Hs-578T; SN12C; SK-MEL-2.
What all share (assay): inhibition of tumour cell growth, NCI panel, 48 h

On to `Cc1cc(Cl)nc(NC(=O)CSc2ccc(Cl)cc2)n1`, for which the GI50 in the assay with MDA-MB-231 was > 100 µM (inactive); with 786-0, > 100 µM (inactive); in the assay on Malme-3M, 64.7 µM (inactive); in the assay on NCI-H460, > 100 µM (inactive); with SF-295, > 100 µM (inactive); in the assay with SK-MEL-5, > 100 µM (inactive). Also, the GI50 was > 100 µM (inactive) in the assay with PC-3; > 100 µM (inactive) in the assay with NCI/ADR-RES; > 100 µM (inactive) in the assay with HOP-92; > 100 µM (inactive) in the assay on SK-MEL-28; 79.1 µM (inactive) with HOP-62; > 100 µM (inactive) in the assay on IGROV-1. The GI50 in the assay on OVCAR-3 was > 100 µM (inactive); with HCT-116, > 100 µM (inactive); in the assay on CCRF-CEM, > 100 µM (inactive); with Hs-578T, 77.6 µM (inactive); with SN12C it was > 100 µM (inactive); in the assay on SK-MEL-2, > 100 µM (inactive).

For `COC(C)(C)[C@@H](O)[C@H]1C[C@H](C)[C@@]2(CC[C@]3(C)[C@@H]2CC[C@@H]2[C@@]4(C)CC[C@@H](OC(C)=O)C(C)(C)[C@@H]4C[C@@H](OC4OC(COC(C)=O)C(O)C(O)C4O)[C@]23C)O1` (some centres undefined), the GI50 in the assay on MDA-MB-231 is 8.83 µM (inactive); with 786-0, 5.86 µM (inactive); in the assay with Malme-3M it was 10.5 µM (inactive); in the assay with NCI-H460, 4.37 µM (inactive); in the assay with SF-295 it was 4.51 µM (inactive); in the assay on SK-MEL-5, 6.53 µM (inactive). The GI50 in the assay with PC-3 was 2.63 µM (inactive); with NCI/ADR-RES it was 7.43 µM (inactive); with HOP-92, 4.8 µM (inactive); with SK-MEL-28 it was 7.57 µM (inactive); with HOP-62, 12.3 µM (inactive); in the assay on IGROV-1 it was 4.39 µM (inactive). Also, the GI50 was 4.26 µM (inactive) with OVCAR-3; 3.25 µM (inactive) with HCT-116; 3.3 µM (inactive) in the assay with CCRF-CEM; 6.76 µM (inactive) in the assay with Hs-578T; 6.43 µM (inactive) in the assay with SN12C; 4.75 µM (inactive) with SK-MEL-2.

For `COC1=CC(=O)c2nc3ccccc3c3ccnc1c23`, the GI50 in the assay with MDA-MB-231 was 7.8 µM (inactive); with 786-0, 3.64 µM (inactive); with Malme-3M, 1.58 µM (inactive); in the assay with NCI-H460 it was 0.434 µM (active); in the assay on SF-295 it was 4.48 µM (inactive); with SK-MEL-5, 0.653 µM (active). In addition, the GI50 in the assay on PC-3 is 1.81 µM (inactive); with NCI/ADR-RES it was 3.71 µM (inactive); in the assay with HOP-92, 15.8 µM (inactive); in the assay on SK-MEL-28, 19.7 µM (inactive); with HOP-62 it was 5.74 µM (inactive); in the assay on IGROV-1, 3.56 µM (inactive). Also, the GI50 was 2.04 µM (inactive) in the assay with OVCAR-3; 1.2 µM (inactive) in the assay on HCT-116; 4.4 µM (inactive) in the assay on CCRF-CEM; 5.48 µM (inactive) in the assay on Hs-578T; 6.82 µM (inactive) in the assay on SN12C; 5.64 µM (inactive) in the assay on SK-MEL-2.

For the compound `CCC/C(Cl)=N\OC(=O)Nc1ccc(OC(F)(F)F)cc1`, the GI50 in the assay with MDA-MB-231 was 9.93 µM (inactive); in the assay on 786-0, 12.3 µM (inactive); with Malme-3M it was 1.68 µM (inactive); in the assay with NCI-H460, 20.5 µM (inactive); in the assay with SF-295, 16.3 µM (inactive); with SK-MEL-5, 5.4 µM (inactive). Besides, the GI50 with PC-3 is 17.7 µM (inactive); in the assay with NCI/ADR-RES, 6.98 µM (inactive); in the assay with HOP-92, 2.22 µM (inactive); in the assay with SK-MEL-28 it was 19.6 µM (inactive); in the assay with HOP-62 it was 18.1 µM (inactive); in the assay with IGROV-1, 6.93 µM (inactive). Moreover, the GI50 in the assay on OVCAR-3 was 11.3 µM (inactive); with HCT-116, 9.4 µM (inactive); in the assay on CCRF-CEM it was 2.47 µM (inactive); in the assay with Hs-578T, 28.1 µM (inactive); with SN12C, 8.57 µM (inactive); in the assay on SK-MEL-2 it was 17.6 µM (inactive).

Consider `Cc1cc(-c2nc3ccccc3s2)ccc1NC(=O)[C@H](C)N`, for which the GI50 in the assay on MDA-MB-231 is 14.3 µM (inactive); in the assay on 786-0, 11.1 µM (inactive); with Malme-3M, 24 µM (inactive); with NCI-H460, 10.1 µM (inactive); with SF-295, 15.3 µM (inactive); in the assay on SK-MEL-5, 13 µM (inactive). The GI50 was 13.1 µM (inactive) in the assay with PC-3; 18.3 µM (inactive) with NCI/ADR-RES; 15.7 µM (inactive) in the assay on HOP-92; 15.7 µM (inactive) in the assay on SK-MEL-28; 13.8 µM (inactive) with HOP-62; 4.38 µM (inactive) in the assay on IGROV-1. Besides, the GI50 with OVCAR-3 is 11.4 µM (inactive); in the assay on HCT-116, 10.9 µM (inactive); in the assay on CCRF-CEM, 7.89 µM (inactive); in the assay with Hs-578T it was 24.3 µM (inactive); in the assay on SN12C it was 14.7 µM (inactive); with SK-MEL-2, 17.5 µM (inactive).

Consider `Cc1ccc(S(=O)(=O)N/N=C/C2(c3ccccc3)c3ccccc3-c3ccccc32)cc1`, for which the GI50 with MDA-MB-231 was 6.64 µM (inactive); in the assay on 786-0, 12.1 µM (inactive); in the assay with Malme-3M it was 5.42 µM (inactive); with NCI-H460, 5.06 µM (inactive); in the assay with SF-295, 3.21 µM (inactive); in the assay on SK-MEL-5, 11.6 µM (inactive). Besides, the GI50 in the assay with PC-3 was 3.38 µM (inactive); with NCI/ADR-RES, 7.94 µM (inactive); with HOP-92, 12.6 µM (inactive); with SK-MEL-28, 14.8 µM (inactive); in the assay on HOP-62, 17.7 µM (inactive); in the assay on IGROV-1 it was 10.5 µM (inactive). Further, the GI50 in the assay on OVCAR-3 was 7.71 µM (inactive); in the assay on HCT-116 it was 7.08 µM (inactive); in the assay on CCRF-CEM it was 4.16 µM (inactive); with Hs-578T, 14.3 µM (inactive); in the assay with SN12C, 11.7 µM (inactive); in the assay with SK-MEL-2, 12.2 µM (inactive).

As for `[N-]=[N+]=Nc1c([N+](=O)[O-])c(Cl)nc2ccccc12`, the GI50 in the assay with MDA-MB-231 was 1.85 µM (inactive); in the assay with 786-0, 0.541 µM (active); with Malme-3M it was 1.69 µM (inactive); in the assay on NCI-H460, 10.8 µM (inactive); with SF-295, 19.4 µM (inactive); in the assay with SK-MEL-5 it was 8.99 µM (inactive). The GI50 was 1.91 µM (inactive) with PC-3; 2.56 µM (inactive) in the assay with NCI/ADR-RES; 1.95 µM (inactive) with HOP-92; 2.48 µM (inactive) in the assay with SK-MEL-28; 19.8 µM (inactive) with HOP-62; 2.09 µM (inactive) in the assay on IGROV-1. For the same compound, the GI50 in the assay with OVCAR-3 was 1.41 µM (inactive); in the assay on HCT-116, 1.63 µM (inactive); in the assay with CCRF-CEM it was 0.376 µM (active); in the assay on Hs-578T, 3.12 µM (inactive); in the assay on SN12C it was 2.23 µM (inactive); in the assay on SK-MEL-2, 1.4 µM (inactive).

Turning to `CC(C)(C)c1ccc(S(=O)(=O)N2C(c3cccc(C4CC[C@@H](C(=O)O)N4S(=O)(=O)c4ccc(C(C)(C)C)cc4)c3)CC[C@H]2C(=O)O)cc1` (some centres undefined), the GI50 in the assay on MDA-MB-231 is > 100 µM (inactive); with 786-0 it was 49.4 µM (inactive); in the assay with Malme-3M, 87.1 µM (inactive); in the assay on NCI-H460 it was 47.9 µM (inactive); in the assay on SF-295, 45.8 µM (inactive); with SK-MEL-5 it was 57.7 µM (inactive). Also, the GI50 was 32.7 µM (inactive) in the assay on PC-3; > 100 µM (inactive) in the assay on NCI/ADR-RES; 58.1 µM (inactive) with HOP-92; > 100 µM (inactive) in the assay with SK-MEL-28; 98.4 µM (inactive) in the assay with HOP-62; 33.5 µM (inactive) with IGROV-1. Also, the GI50 is 28 µM (inactive) with OVCAR-3; 38.1 µM (inactive) in the assay on HCT-116; 33 µM (inactive) in the assay on CCRF-CEM; 47 µM (inactive) in the assay with Hs-578T; 47.3 µM (inactive) in the assay with SN12C; 30.1 µM (inactive) with SK-MEL-2.
